{"source": "patent US10351566B2", "about": "“Therapeutic compounds for pain and synthesis thereof” (priority 2015, dated 2019)", "key": {"[1]": {"test_system": "Taxol-induced neuropathic pain", "experiment": "Taxol-induced neuropathic pain in mice, SC administration", "assay_type": "in vivo", "description": "Study outline in brief: Animals were dosed daily with Taxol for a period of 8 consecutive days (Day 0 to Day 7). On study day 8, prior to drug dosing, the decrease in withdrawal force (tactile allodynia) was verified by applying the von Frey test. After assigning the animals to their treatment groups, the animals were treated daily for a period of 5 days with either vehicle or Formula 1 at different doses. Gabapentin at a dose of 150 mg/kg was dosed only on days of testing (day 8 and day 14).\nResponse to heat stimuli was assessed using the hotplate apparatus set at 50ΥC. […] At baseline prior to Taxol dosing, the animals' response time to heat was 28.10±1.60 sec (vehicle-treated group). […] However, it is interesting to note that the beneficial activity of Formula 1 on heat hyperalgesia was more noticeable on study day 14, following repeated daily dosing of the compound, than on study day 8 following a single dose (Table 6)."}, "in vitro": {"experiment": "in vitro", "assay_type": "in vitro ADME", "settings": "human, Caco-2", "description": "Formula 1 was evaluated for cellular permeability using Caco-2 cell monolayers. Both the apical-to-basolateral (A-B) and basolateral-to-apical (B-A) bidirectional permeability and efflux ratios were evaluated in the assay."}, "CYP2D6": {"target": "CYP2D6 (Homo sapiens, UniProt P10635)", "sequence (P10635 whole entry)": "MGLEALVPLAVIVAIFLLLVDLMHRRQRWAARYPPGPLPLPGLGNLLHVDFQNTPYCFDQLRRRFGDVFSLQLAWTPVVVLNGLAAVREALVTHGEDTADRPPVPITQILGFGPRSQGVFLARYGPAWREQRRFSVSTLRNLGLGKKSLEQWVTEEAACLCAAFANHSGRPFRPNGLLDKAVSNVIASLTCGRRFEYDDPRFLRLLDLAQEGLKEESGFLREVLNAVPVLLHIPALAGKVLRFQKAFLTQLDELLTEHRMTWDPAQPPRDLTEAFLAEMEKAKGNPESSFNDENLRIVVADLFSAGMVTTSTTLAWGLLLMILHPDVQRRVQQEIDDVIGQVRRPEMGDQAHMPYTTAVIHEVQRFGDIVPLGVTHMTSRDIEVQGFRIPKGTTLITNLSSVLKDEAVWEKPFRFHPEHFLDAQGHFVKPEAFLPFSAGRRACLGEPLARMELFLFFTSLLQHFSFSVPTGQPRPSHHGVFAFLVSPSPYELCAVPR", "experiment": "Reversible CYP450 inhibition, cocktail format", "assay_type": "biochemical", "settings": "2D6, reversible inhibition, preliminary", "description": "(§1) Preliminary in vitro studies on reversible inhibition of major CYP450 enzymes were conducted in a cocktail format for this compound. The IC50 values were 4 μM for CYP2C9, 5 μM for CYP2C19, and greater than 10 μM for CYP3A4, 2C8, 2D6, and 1A2. If total plasma concentrations in humans are less than 0.4 μM, then in vivo drug interaction studies in clinical trials may not be required for this compound."}, "CYP2C9": {"target": "CYP2C9 (Homo sapiens, UniProt P11712)", "sequence (P11712 whole entry)": "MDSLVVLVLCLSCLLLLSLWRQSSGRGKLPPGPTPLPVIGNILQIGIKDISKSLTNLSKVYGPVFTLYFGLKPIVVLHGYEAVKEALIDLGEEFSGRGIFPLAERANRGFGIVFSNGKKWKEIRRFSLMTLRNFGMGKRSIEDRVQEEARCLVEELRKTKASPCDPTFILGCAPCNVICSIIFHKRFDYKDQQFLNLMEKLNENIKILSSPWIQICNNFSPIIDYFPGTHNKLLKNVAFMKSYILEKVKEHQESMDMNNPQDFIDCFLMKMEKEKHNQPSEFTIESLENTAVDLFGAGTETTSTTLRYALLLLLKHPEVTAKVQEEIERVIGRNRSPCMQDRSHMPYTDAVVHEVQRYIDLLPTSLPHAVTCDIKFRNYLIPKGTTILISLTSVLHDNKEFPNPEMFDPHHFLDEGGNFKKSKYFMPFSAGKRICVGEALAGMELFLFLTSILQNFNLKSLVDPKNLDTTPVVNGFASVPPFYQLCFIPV", "experiment": "Reversible CYP450 inhibition, cocktail format", "assay_type": "biochemical", "settings": "preliminary", "description": "as §1"}, "CYP2C19": {"target": "CYP2C19 (Homo sapiens, UniProt P33261)", "sequence (P33261 whole entry)": "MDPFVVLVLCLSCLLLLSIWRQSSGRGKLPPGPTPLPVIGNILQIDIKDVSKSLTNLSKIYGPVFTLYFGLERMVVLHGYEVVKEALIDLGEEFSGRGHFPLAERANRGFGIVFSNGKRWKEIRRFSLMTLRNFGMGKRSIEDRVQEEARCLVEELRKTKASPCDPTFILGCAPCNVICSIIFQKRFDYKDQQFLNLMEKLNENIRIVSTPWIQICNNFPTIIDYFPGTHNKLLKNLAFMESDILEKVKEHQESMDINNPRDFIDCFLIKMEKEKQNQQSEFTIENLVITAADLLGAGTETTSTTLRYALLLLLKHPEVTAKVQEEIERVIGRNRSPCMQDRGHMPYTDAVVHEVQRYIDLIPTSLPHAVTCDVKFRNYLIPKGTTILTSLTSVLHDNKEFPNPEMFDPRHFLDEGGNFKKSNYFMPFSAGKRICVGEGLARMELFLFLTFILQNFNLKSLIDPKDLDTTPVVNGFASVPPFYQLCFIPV", "experiment": "Reversible CYP450 inhibition, cocktail format", "assay_type": "biochemical", "settings": "preliminary", "description": "as §1"}, "CYP2C8": {"target": "T1, CYP2C8 (Homo sapiens, UniProt P10632)", "T1 sequence (P10632 1-490)": "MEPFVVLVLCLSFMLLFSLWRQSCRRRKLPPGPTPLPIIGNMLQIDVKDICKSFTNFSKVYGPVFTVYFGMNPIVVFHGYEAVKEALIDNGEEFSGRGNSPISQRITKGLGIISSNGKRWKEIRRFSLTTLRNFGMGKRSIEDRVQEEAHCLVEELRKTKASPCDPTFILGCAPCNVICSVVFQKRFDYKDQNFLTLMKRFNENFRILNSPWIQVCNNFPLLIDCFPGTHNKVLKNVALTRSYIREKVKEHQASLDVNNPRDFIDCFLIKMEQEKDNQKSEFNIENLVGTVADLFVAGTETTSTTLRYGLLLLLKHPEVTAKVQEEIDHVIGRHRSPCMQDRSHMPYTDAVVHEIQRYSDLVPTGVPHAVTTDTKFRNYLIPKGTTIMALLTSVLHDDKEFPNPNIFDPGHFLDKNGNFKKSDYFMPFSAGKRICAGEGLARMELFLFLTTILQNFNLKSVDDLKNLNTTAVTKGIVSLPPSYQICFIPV", "experiment": "Reversible CYP450 inhibition, cocktail format", "assay_type": "biochemical", "settings": "2C8, reversible inhibition, preliminary", "description": "as §1"}, "CYP3A4": {"target": "CYP3A4 (Homo sapiens, UniProt P08684)", "sequence (P08684 whole entry)": "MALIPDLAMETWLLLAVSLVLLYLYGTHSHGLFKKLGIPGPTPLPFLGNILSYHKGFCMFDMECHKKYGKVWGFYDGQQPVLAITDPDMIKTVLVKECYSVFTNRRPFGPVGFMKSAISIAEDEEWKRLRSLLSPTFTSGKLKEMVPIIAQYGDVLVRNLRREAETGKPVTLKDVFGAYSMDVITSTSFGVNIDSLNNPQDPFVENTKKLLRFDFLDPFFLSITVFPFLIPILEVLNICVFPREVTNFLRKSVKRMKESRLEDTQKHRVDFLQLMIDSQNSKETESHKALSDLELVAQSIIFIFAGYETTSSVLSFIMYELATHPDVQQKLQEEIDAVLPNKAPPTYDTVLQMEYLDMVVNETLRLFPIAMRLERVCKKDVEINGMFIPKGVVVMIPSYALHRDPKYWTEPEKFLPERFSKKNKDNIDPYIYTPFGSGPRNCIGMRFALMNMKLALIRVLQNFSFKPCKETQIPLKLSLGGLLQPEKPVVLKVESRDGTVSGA", "experiment": "Reversible CYP450 inhibition, cocktail format", "assay_type": "biochemical", "settings": "preliminary", "description": "as §1"}, "CYP1A2": {"target": "T2, CYP1A2 (Homo sapiens, UniProt P05177)", "T2 sequence (P05177 1-516)": "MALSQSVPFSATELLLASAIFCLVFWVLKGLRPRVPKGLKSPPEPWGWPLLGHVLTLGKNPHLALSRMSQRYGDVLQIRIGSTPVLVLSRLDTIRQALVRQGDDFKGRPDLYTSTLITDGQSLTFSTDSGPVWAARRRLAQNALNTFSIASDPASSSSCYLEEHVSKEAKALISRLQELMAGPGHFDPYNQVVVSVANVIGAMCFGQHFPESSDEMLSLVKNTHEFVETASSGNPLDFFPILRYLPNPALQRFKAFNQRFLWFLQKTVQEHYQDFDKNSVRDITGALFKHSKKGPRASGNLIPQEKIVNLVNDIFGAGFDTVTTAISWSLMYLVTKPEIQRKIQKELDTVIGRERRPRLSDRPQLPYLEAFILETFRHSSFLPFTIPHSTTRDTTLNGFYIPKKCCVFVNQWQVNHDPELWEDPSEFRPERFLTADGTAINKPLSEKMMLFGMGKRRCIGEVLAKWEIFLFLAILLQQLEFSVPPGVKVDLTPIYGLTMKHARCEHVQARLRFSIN", "experiment": "Reversible CYP450 inhibition, cocktail format", "assay_type": "biochemical", "settings": "1A2, reversible inhibition, preliminary", "description": "as §1"}}, "note": "Marks after values point to notes of the source that are not given here.", "data": [{"smiles": "CC(C)(C)C(=O)O[C@@H]1[C@@H]2[C@H]3C[C@H](C[C@@H]1N3Cc1ccccn1)CN2C(=O)CC(F)(F)F", "note": "(relative stereo) [Formula 1, (2S*,3S*,3aS*,6R*,7aR*)-1-(pyridin-2-ylmethyl)-4-(3,3,3-trifluoropropanoyl)octahydro-1H-2,6-methanopyrrolo[3,2-b]pyridin-3-yl pivalate]", "values": [{"measurement": "response time to heat (50° C.), Mean", "setting": "[1]; SC 1 mg/kg, Day 0 Pre-Taxol", "value": 28.8, "unit": "s"}, {"measurement": "response time to heat (50° C.), Mean", "setting": "[1]; SC 1 mg/kg, Day 8, 1 h", "value": 11.9, "unit": "s"}, {"measurement": "response time to heat (50° C.), Mean", "setting": "[1]; SC 1 mg/kg, Day 8, 2 h", "value": "22.8* sec"}, {"measurement": "response time to heat (50° C.), Mean", "setting": "[1]; SC 1 mg/kg, Day 8, 4 h", "value": "18.9* sec"}, {"measurement": "response time to heat (50° C.), Mean", "setting": "[1]; SC 1 mg/kg, Day 8, 6 h", "value": "18.5* sec"}, {"measurement": "response time to heat (50° C.), Mean", "setting": "[1]; SC 1 mg/kg, Day 8 Pre-dosing", "value": 11.4, "unit": "s"}, {"measurement": "response time to heat (50° C.), Mean", "setting": "[1]; SC 1 mg/kg, Day 14, 1 h", "value": "14.9* sec"}, {"measurement": "response time to heat (50° C.), Mean", "setting": "[1]; SC 1 mg/kg, Day 14, 2 h", "value": "24.6* sec"}, {"measurement": "response time to heat (50° C.), Mean", "setting": "[1]; SC 1 mg/kg, Day 14, 4 h", "value": "24.2* sec"}, {"measurement": "response time to heat (50° C.), Mean", "setting": "[1]; SC 1 mg/kg, Day 14, 6 h", "value": "22.0* sec"}, {"measurement": "response time to heat (50° C.), Mean", "setting": "[1]; SC 1 mg/kg, Day 14 Pre-dosing", "value": "15.8* sec"}, {"measurement": "response time to heat (50° C.), Mean", "setting": "[1]; SC 1 mg/kg, Day 17, No dosing", "value": 12.4, "unit": "s"}, {"measurement": "response time to heat (50° C.), Mean", "setting": "[1]; SC 3 mg/kg, Day 0 Pre-Taxol", "value": 28.6, "unit": "s"}, {"measurement": "response time to heat (50° C.), Mean", "setting": "[1]; SC 3 mg/kg, Day 8, 1 h", "value": 15.7, "unit": "s"}, {"measurement": "response time to heat (50° C.), Mean", "setting": "[1]; SC 3 mg/kg, Day 8, 2 h", "value": 19.4, "unit": "s"}, {"measurement": "response time to heat (50° C.), Mean", "setting": "[1]; SC 3 mg/kg, Day 8, 4 h", "value": 14.8, "unit": "s"}, {"measurement": "response time to heat (50° C.), Mean", "setting": "[1]; SC 3 mg/kg, Day 8, 6 h", "value": 14.1, "unit": "s"}, {"measurement": "response time to heat (50° C.), Mean", "setting": "[1]; SC 3 mg/kg, Day 8 Pre-dosing", "value": 12.2, "unit": "s"}, {"measurement": "response time to heat (50° C.), Mean", "setting": "[1]; SC 3 mg/kg, Day 14, 1 h", "value": "18.4* sec"}, {"measurement": "response time to heat (50° C.), Mean", "setting": "[1]; SC 3 mg/kg, Day 14, 2 h", "value": "24.8* sec"}, {"measurement": "response time to heat (50° C.), Mean", "setting": "[1]; SC 3 mg/kg, Day 14, 4 h", "value": "23.6* sec"}, {"measurement": "response time to heat (50° C.), Mean", "setting": "[1]; SC 3 mg/kg, Day 14, 6 h", "value": "20.6* sec"}, {"measurement": "response time to heat (50° C.), Mean", "setting": "[1]; SC 3 mg/kg, Day 14 Pre-dosing", "value": 19.7, "unit": "s"}, {"measurement": "response time to heat (50° C.), Mean", "setting": "[1]; SC 3 mg/kg, Day 17, No dosing", "value": 12.2, "unit": "s"}, {"measurement": "response time to heat (50° C.), Mean", "setting": "[1]; SC 10 mg/kg, Day 0 Pre-Taxol", "value": 28.5, "unit": "s"}, {"measurement": "response time to heat (50° C.), Mean", "setting": "[1]; SC 10 mg/kg, Day 8, 1 h", "value": 15.7, "unit": "s"}, {"measurement": "response time to heat (50° C.), Mean", "setting": "[1]; SC 10 mg/kg, Day 8, 2 h", "value": "17.8* sec"}, {"measurement": "response time to heat (50° C.), Mean", "setting": "[1]; SC 10 mg/kg, Day 8, 4 h", "value": 15.8, "unit": "s"}, {"measurement": "response time to heat (50° C.), Mean", "setting": "[1]; SC 10 mg/kg, Day 8, 6 h", "value": 14.3, "unit": "s"}, {"measurement": "response time to heat (50° C.), Mean", "setting": "[1]; SC 10 mg/kg, Day 8 Pre-dosing", "value": 11.2, "unit": "s"}, {"measurement": "response time to heat (50° C.), Mean", "setting": "[1]; SC 10 mg/kg, Day 14, 1 h", "value": "18.5* sec"}, {"measurement": "response time to heat (50° C.), Mean", "setting": "[1]; SC 10 mg/kg, Day 14, 2 h", "value": "18.7* sec"}, {"measurement": "response time to heat (50° C.), Mean", "setting": "[1]; SC 10 mg/kg, Day 14, 4 h", "value": "19.3* sec"}, {"measurement": "response time to heat (50° C.), Mean", "setting": "[1]; SC 10 mg/kg, Day 14, 6 h", "value": "15.5* sec"}, {"measurement": "response time to heat (50° C.), Mean", "setting": "[1]; SC 10 mg/kg, Day 14 Pre-dosing", "value": 14.5, "unit": "s"}, {"measurement": "response time to heat (50° C.), Mean", "setting": "[1]; SC 10 mg/kg, Day 17, No dosing", "value": 10.4, "unit": "s"}, {"measurement": "response time to heat (hotplate 50° C.)", "setting": "[1]; Taxol mice, SC, 10 mg/kg, 3 mg/kg and 1 mg/kg", "value": "active in increasing the response time"}, {"measurement": "analgesic activity (withdrawal force, von Frey)", "setting": "[1]; Taxol mice, SC, dose as low as 1 mg/kg", "value": "profound analgesic activity"}, {"measurement": "Dose of maximum activity", "setting": "[1]; Taxol model, SC, mice", "value": 1, "unit": "mg/kg"}, {"measurement": "Duration of activity at maximum effect", "setting": "[1]; Taxol model, SC, mice", "value": 3, "unit": "days"}, {"measurement": "Level of activity (% of maximum effect-baseline)", "setting": "[1]; Taxol model, SC, mice", "value": 100, "unit": "%"}, {"measurement": "efflux ratio", "setting": "in vitro", "value": 10.4}, {"measurement": "Papp A→B", "setting": "in vitro; apical-to-basolateral", "value": 6.6, "unit": "×10⁻⁶ cm/s"}, {"measurement": "Papp B→A", "setting": "in vitro; basolateral-to-apical", "value": 68.3, "unit": "×10⁻⁶ cm/s"}, {"measurement": "IC50", "setting": "CYP2D6", "value": "> 10", "unit": "µM"}, {"measurement": "IC50", "setting": "CYP2C9", "value": 4, "unit": "µM"}, {"measurement": "IC50", "setting": "CYP2C19", "value": 5, "unit": "µM"}, {"measurement": "IC50", "setting": "CYP2C8", "value": "> 10", "unit": "µM"}, {"measurement": "IC50", "setting": "CYP3A4", "value": "> 10", "unit": "µM"}, {"measurement": "IC50", "setting": "CYP1A2", "value": "> 10", "unit": "µM"}]}]}
